Data reported in PubChem BioAssay AID330 (DTP/NCI, 2004).
Where “and” joins values, the source holds several entries; their conditions need not be identical. Equal entries are not always repeated. Inconclusive results and toxic doses are left out. Rule for the calls: active = survival T/C of 150% or more; inactive = T/C below 125% in these data.

Test system: P388 leukemia ip, CD2F1 mice, survival T/C
Assay: NCI In Vivo Anticancer Drug Screen. Data for tumor model P388 Leukemia (intraperitoneal) in CD2F1 (CDF1) mice
Details: endpoint: median survival time, higher = longer survival
Method in brief: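 Mice carrying the transplanted tumor received test compound or vehicle. Survival was recorded in each group, and the value is the treated-group measurement divided by that of the vehicle-treated control group.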

[1] = dose: 100.0 mg/kg/injection, schedule: Q01DX009 (ip), vehicle: Klucel (hydroxypropylcellulose) (HPC)
[2] = dose: 50.0 mg/kg/injection, schedule: Q01DX005 (ip), vehicle: Klucel (hydroxypropylcellulose) (HPC)
[3] = dose: 100.0 mg/kg/injection, schedule: Q01DX005 (ip), vehicle: Klucel (hydroxypropylcellulose) (HPC)
[4] = dose: 200.0 mg/kg/injection, schedule: Q01DX005 (ip), vehicle: Klucel (hydroxypropylcellulose) (HPC)
[5] = dose: 60.0 mg/kg/injection, schedule: Q01DX005 (ip), vehicle: saline with Tween-80
[6] = dose: 240.0 mg/kg/injection, schedule: Q01DX005 (ip), vehicle: saline with Tween-80
[7] = dose: 25.0 mg/kg/injection, schedule: Q01DX009 (ip), vehicle: Klucel (hydroxypropylcellulose) (HPC)
[8] = dose: 50.0 mg/kg/injection, schedule: Q01DX009 (ip), vehicle: Klucel (hydroxypropylcellulose) (HPC)
[9] = dose: 12.5 mg/kg/injection, schedule: Q01DX009 (ip), vehicle: saline with Tween-80
[10] = dose: 25.0 mg/kg/injection, schedule: Q01DX009 (ip), vehicle: saline with Tween-80
[11] = dose: 50.0 mg/kg/injection, schedule: Q01DX009 (ip), vehicle: saline with Tween-80
[12] = dose: 100.0 mg/kg/injection, schedule: Q01DX009 (ip), vehicle: saline with Tween-80
[13] = dose: 50.0 mg/kg/injection, schedule: Q01DX009 (ip), vehicle: saline
[14] = dose: 100.0 mg/kg/injection, schedule: Q01DX009 (ip), vehicle: saline
[15] = dose: 100.0 mg/kg/injection, schedule: Q04DX002 (ip), vehicle: saline
[16] = dose: 25.0 mg/kg/injection, schedule: Q01DX005 (ip), vehicle: Klucel (hydroxypropylcellulose) (HPC)

Measured: T/C

CCCCC(CC)CCC(CC(C)C)OCCC#N (centres undefined)
inactive: [1] 100 % of control | dose: 200.0 mg/kg/injection, schedule: Q01DX009 (ip), vehicle: Klucel (hydroxypropylcellulose) (HPC) 96 % of control | dose: 400.0 mg/kg/injection, schedule: Q01DX009 (ip), vehicle: Klucel (hydroxypropylcellulose) (HPC) 90 % of control

CCCCCCOC(=O)Nc1nnc(SSC2=NN=CC2NC(=O)OCCCCCC)s1 (centres undefined)
inactive: dose: 100.0 mg/kg/injection, schedule: Q01DX001 (ip), vehicle: saline 91 % of control | dose: 200.0 mg/kg/injection, schedule: Q01DX001 (ip), vehicle: saline 90 % of control | dose: 400.0 mg/kg/injection, schedule: Q01DX001 (ip), vehicle: saline 90 % of control

Cc1cc(C(=O)O)sn1
inactive: dose: 3.12 mg/kg/injection, schedule: Q01DX009 (ip), vehicle: saline 100 % of control | dose: 6.25 mg/kg/injection, schedule: Q01DX009 (ip), vehicle: saline 100 % of control | dose: 12.5 mg/kg/injection, schedule: Q01DX009 (ip), vehicle: saline 96 % of control | dose: 25.0 mg/kg/injection, schedule: Q01DX009 (ip), vehicle: saline 100 % of control

S=c1c2ccccc2c(=S)n(-c2ccccc2)n1-c1ccccc1
inactive: dose: 60.0 mg/kg/injection, schedule: Q01DX005 (ip), vehicle: Klucel (hydroxypropylcellulose) (HPC) 91 % of control | dose: 120.0 mg/kg/injection, schedule: Q01DX005 (ip), vehicle: Klucel (hydroxypropylcellulose) (HPC) 94 % of control | dose: 240.0 mg/kg/injection, schedule: Q01DX005 (ip), vehicle: Klucel (hydroxypropylcellulose) (HPC) 92 % of control

S=c1oc(-c2ccc3c(c2)OCO3)nn1CN1CCN(Cn2nc(-c3ccc4c(c3)OCO4)oc2=S)CC1
inactive: [2] 96 % of control | [3] 96 % of control | [4] 93 % of control

O=C1CS/C(=C/Cc2nc3ccccc3s2)N1
inactive: [5] 108 % of control | dose: 120.0 mg/kg/injection, schedule: Q01DX005 (ip), vehicle: saline with Tween-80 97 % of control | [6] 102 % of control

C[C@]12CCC(=O)C=C1CC[C@@H]1[C@@H]2C(=O)C[C@@]2(C)[C@H]1CC[C@]2(O)C(=O)C=O
inactive: dose: 12.5 mg/kg/injection, schedule: Q01DX009 (ip), vehicle: Klucel (hydroxypropylcellulose) (HPC) 111 % of control and 123 % of control | [7] 119 % of control | [8] 111 % of control and 120 % of control | [1] 102 % of control and 113 % of control

Cc1cccc(C(=O)NN)c1O
inactive: [9] 98 % of control | [10] 104 % of control | [11] 104 % of control | [12] 101 % of control

CC(=O)N(O)c1ccc(C(N)=O)cc1
inactive: [13] 99 % of control | [14] 106 % of control | dose: 200.0 mg/kg/injection, schedule: Q01DX009 (ip), vehicle: saline 106 % of control

COc1ccc2c(c1)CC[n+]1c-2ccc2c1CCC2=O
inactive: dose: 50.0 mg/kg/injection, schedule: Q01DX005 (ip), vehicle: saline with Tween-80 111 % of control

NC(=O)NC(=O)CCl
inactive: [7] 105 % of control and 94 % of control | [8] 103 % of control and 122 % of control and 94 % of control

Cc1ccc(O)c(C(NCCO)c2ccccc2)c1 (centres undefined)
inactive: [15] 102 % of control

O=C1C2=C(CCC2)C(=O)N1c1ccc(N2C(=O)C3=C(CCC3)C2=O)cc1
inactive: dose: 1.56 mg/kg/injection, schedule: Q01DX009 (ip), vehicle: distilled water + Tween-80 101 % of control | dose: 3.13 mg/kg/injection, schedule: Q01DX009 (ip), vehicle: distilled water + Tween-80 102 % of control | dose: 6.25 mg/kg/injection, schedule: Q01DX009 (ip), vehicle: distilled water + Tween-80 100 % of control | dose: 12.5 mg/kg/injection, schedule: Q01DX009 (ip), vehicle: distilled water + Tween-80 99 % of control | dose: 25.0 mg/kg/injection, schedule: Q01DX009 (ip), vehicle: distilled water + Tween-80 107 % of control | dose: 50.0 mg/kg/injection, schedule: Q01DX009 (ip), vehicle: distilled water + Tween-80 103 % of control | dose: 100.0 mg/kg/injection, schedule: Q01DX009 (ip), vehicle: distilled water + Tween-80 119 % of control

O=C(/C=C/c1ccccc1)n1nnc2cc(Cl)c(Cl)cc21
inactive: [9] 92 % of control | [10] 115 % of control | [11] 92 % of control | [12] 99 % of control | dose: 200.0 mg/kg/injection, schedule: Q01DX009 (ip), vehicle: saline with Tween-80 96 % of control

COc1ccc(OC)c(C(=O)c2ccccc2C(=O)O)c1
inactive: [16] 102 % of control | [2] 100 % of control | [3] 96 % of control

CN1c2ccccc2N=Cc2c1oc1ccc3ccccc3c1c2=O
inactive: dose: 12.5 mg/kg/injection, schedule: Q01DX005 (ip), vehicle: Klucel (hydroxypropylcellulose) (HPC) 96 % of control | [16] 103 % of control | [2] 92 % of control

CCCCCCCCCCCCC1=C(O)C(=O)C=C(O)C1=O
inactive: dose: 12.5 mg/kg/injection, schedule: Q01DX005 (ip), vehicle: suspension in saline 102 % of control | dose: 25.0 mg/kg/injection, schedule: Q01DX005 (ip), vehicle: suspension in saline 108 % of control | dose: 50.0 mg/kg/injection, schedule: Q01DX005 (ip), vehicle: saline 99 % of control | dose: 50.0 mg/kg/injection, schedule: Q01DX005 (ip), vehicle: suspension in saline 112 % of control

O=C(Nc1cccc(Br)c1)Oc1ccc(Cl)c2cccnc12
inactive: dose: 7.5 mg/kg/injection, schedule: Q01DX005 (ip), vehicle: saline with Tween-80 107 % of control | dose: 15.0 mg/kg/injection, schedule: Q01DX005 (ip), vehicle: saline with Tween-80 103 % of control | dose: 30.0 mg/kg/injection, schedule: Q01DX005 (ip), vehicle: saline with Tween-80 103 % of control and 91 % of control | [5] 100 % of control and 111 % of control | [6] 88 % of control

CCn1c2ccccc2c2ccc(N=Cc3ccc4ccccc4c3)cc21
inactive: dose: 100.0 mg/kg/injection, schedule: Q04DX003 (ip), vehicle: saline + alcohol 92 % of control | dose: 200.0 mg/kg/injection, schedule: Q04DX003 (ip), vehicle: saline + alcohol 97 % of control | dose: 400.0 mg/kg/injection, schedule: Q04DX003 (ip), vehicle: saline + alcohol 97 % of control

N#CC1(N)CC2CCCCC2CC1c1ccccc1 (centres undefined)
inactive: dose: 100.0 mg/kg/injection, schedule: Q04DX002 (ip), vehicle: saline with Tween-80 106 % of control | dose: 200.0 mg/kg/injection, schedule: Q04DX002 (ip), vehicle: saline with Tween-80 101 % of control | dose: 400.0 mg/kg/injection, schedule: Q04DX002 (ip), vehicle: saline with Tween-80 101 % of control

CN(C)C1=CC(=S)NC2CCCCC12 (centres undefined)
inactive: [2] 99 % of control | [3] 95 % of control | [4] 102 % of control

CC1(C)OC2(C)CCC1C1C2N1C(=O)c1ccccc1 (centres undefined)
inactive: [2] 94 % of control | [3] 102 % of control | [4] 102 % of control

CN(C)CCCOC1=Nc2ccccc2O/C1=C/c1cccs1
inactive: dose: 25.0 mg/kg/injection, schedule: Q04DX003 (ip), vehicle: saline 94 % of control | dose: 50.0 mg/kg/injection, schedule: Q04DX003 (ip), vehicle: saline 94 % of control | dose: 100.0 mg/kg/injection, schedule: Q04DX003 (ip), vehicle: saline 100 % of control and 94 % of control

N#C/C(=C\c1cccs1)c1nc(-c2ccc(Cl)cc2)cs1
inactive: [13] 91 % of control | [14] 91 % of control

O=c1[nH]c2c(ccc3ccc[n+]([O-])c32)c2c1CCC2
inactive: [15] 100 % of control | dose: 200.0 mg/kg/injection, schedule: Q04DX002 (ip), vehicle: saline 90 % of control | dose: 400.0 mg/kg/injection, schedule: Q04DX002 (ip), vehicle: saline 100 % of control

O=C(O)c1ccccc1N=N/C(=N\Nc1ccccc1C(=O)O)c1cccc2cccnc12
inactive: dose: 100.0 mg/kg/injection, schedule: Q04DX003 (ip), vehicle: saline with Tween-80 103 % of control | dose: 200.0 mg/kg/injection, schedule: Q04DX003 (ip), vehicle: saline with Tween-80 106 % of control | dose: 400.0 mg/kg/injection, schedule: Q04DX003 (ip), vehicle: saline with Tween-80 97 % of control
